Assay results published in ChEMBL document CHEMBL3272350, “Drugs derived from cannabinoids. 4. Effect of alkyl substitution in sulfur and carbocyclic analogs” (J Med Chem, 1976).
Calls of active or inactive are those of the source.

Experiments:
Felis catus [1] = assay: Sedative-hypnotic activity in cat assessed as increase in total sleep time at 0.25 mg/kg, po administered with diet for 15 to 20 mins measured for 14 hrs; assay type: functional
Canis familiaris [2] = assay: Antianxiety activity in dog assessed as decrease in reactivity and ataxia at 0.1 mg/kg, po administered as single dose measured every 15 mins for 24 hrs; assay type: functional, organism-based; set-up: dose 0.1 mg/kg; settings: Canis lupus familiaris
Mus musculus [3] = assay: Analgesic activity in po dosed mouse assessed as inhibition of acetic acid-induced writhing administered 30 mins prior to acetic acid challenge measured after 5 mins for 20 mins; assay type: functional
Mus musculus [4] = assay: Anticonvulsant activity in mouse assessed as protection against audiogenic seizure at 10 mg/kg, po administered for 1 hr prior to testing relative to control; assay type: functional
Felis catus [5] = assay: Sedative-hypnotic activity in cat assessed as increase in total sleep time at 0.1 mg/kg, po administered with diet for 15 to 20 mins measured for 14 hrs; assay type: functional
Mus musculus [6] = assay: Antidepressant activity in mouse assessed as potentiation of dopa-induced motor responses at 5 mg/kg, po pretreated with compound followed by dopa challenge for 4 hrs; assay type: functional, organism-based; set-up: dose 5 mg/kg
Mus musculus [7] = assay: Analgesic activity in po dosed mouse by hot-plate test; assay type: functional
Canis familiaris [8] = assay: Antianxiety activity in dog assessed as decrease in reactivity and ataxia at 1 mg/kg, po administered as single dose measured every 15 mins for 24 hrs; assay type: functional, organism-based; set-up: dose 1 mg/kg; settings: Canis lupus familiaris
Mus musculus [9] = assay: Antianxiety activity in albino BALB/cJ mouse assessed as reduction of footshock-induced fighting behavior at 10 mg/kg, po after 90 mins relative to control; assay type: functional; set-up: scale not given: the % may be the effect or the level left
[10] = Acute toxicity in po dosed Swiss-Webster mouse assessed as mortality measured for 7 days; assay type: organism-based; settings: in vivo
Felis catus [11] = assay: Sedative-hypnotic activity in cat assessed as increase in total sleep time at 2 mg/kg, po administered with diet for 15 to 20 mins measured for 14 hrs; assay type: functional
Canis familiaris [12] = assay: Antianxiety activity in dog assessed as decrease in reactivity at 0.1 mg/kg, po administered as single dose measured every 15 mins for 24 hrs; assay type: functional, organism-based; set-up: dose 0.1 mg/kg; settings: Canis lupus familiaris
Felis catus [13] = assay: Sedative-hypnotic activity in cat assessed as increase in total sleep time at 1 mg/kg, po administered with diet for 15 to 20 mins measured for 14 hrs; assay type: functional
Canis familiaris [14] = assay: Antianxiety activity in dog assessed as decrease in reactivity and ataxia at 10 mg/kg, po administered as single dose measured every 15 mins for 24 hrs; assay type: functional, organism-based; set-up: dose 10 mg/kg; settings: Canis lupus familiaris
Felis catus [15] = assay: Sedative-hypnotic activity in cat assessed as increase in total sleep time at 0.5 mg/kg, po administered with diet for 15 to 20 mins measured for 14 hrs; assay type: functional
Canis familiaris [16] = assay: Antianxiety activity in dog assessed as decrease in reactivity at 1 mg/kg, po administered as single dose measured every 15 mins for 24 hrs; assay type: functional, organism-based; set-up: dose 1 mg/kg; settings: Canis lupus familiaris
Mus musculus [17] = assay: Anticonvulsant activity in mouse assessed as protection against audiogenic seizure at 30 mg/kg, po administered for 1 hr prior to testing relative to control; assay type: functional
Rattus norvegicus = assay: Analgesic activity in po dosed Sprague-Dawley rat assessed as increase in pain threshold measured at 15 to 90 mins by tail-flick test; assay type: functional

CCCCCC(C)C(C)c1cc(O)c2c(c1)OC(C)(C)C1=C2C(C)CS1 (stereo not given)
Time (Felis catus [1]): 50 min | Activity (Canis familiaris [2]): Active | ED50 (Mus musculus [3]): 4.7 mg/kg | Activity (Mus musculus [4]): 33% | Time (Felis catus [5]): 21 min | Activity (Mus musculus [6]): Active | ED50 (Mus musculus [7]): 1.4 mg/kg | Activity (Canis familiaris [8]): Active | Activity (Mus musculus [9]): 33% | LD50 at 168 h [10]: > 500 mg/kg

CCCCCC(C)C(C)c1cc(O)c2c(c1)OC(C)(C)C1=C2CCS1 (stereo not given)
Time (Felis catus [11]): 31 min | Activity (Canis familiaris [12]): Active | Activity (Mus musculus [4]): 33% | Activity (Mus musculus [6]): Active | Time (Felis catus [13]): 30 min | Activity (Mus musculus [9]): 33% | Activity (Canis familiaris [14]): Active | LD50 at 168 h [10]: > 500 mg/kg

CCCCCC(C)C(C)c1cc(O)c2c(c1)OC(C)(C)C1=C2CC(C)C1 (stereo not given)
ED50 (Mus musculus [3]): 22.6 mg/kg | Activity (Mus musculus [4]): inactive | Activity (Mus musculus [6]): Active | Activity (Canis familiaris [8]): Active | Activity (Mus musculus [9]): 1% | Activity (Canis familiaris [14]): Active | LD50 at 168 h [10]: > 500 mg/kg

CCCCCC(C)C(C)c1cc(O)c2c(c1)OC(C)(C)C1=C2CCC1 (stereo not given)
ED50 (Mus musculus [3]): 25.3 mg/kg | Time (Felis catus [15]): 59 min | Time (Felis catus [11]): 65 min | Activity (Mus musculus [4]): 1% | Activity (Mus musculus [6]): Active | ED50 (Mus musculus [7]): 45.1 mg/kg | Activity (Mus musculus [9]): 33% | Activity (Canis familiaris [14]): Active | Activity (Canis familiaris [16]): Active | LD50 at 168 h [10]: > 500 mg/kg

CCCCCC(C)C(C)c1cc(O)c2c(c1)OC(C)(C)C1=C2C(C)CCC1 (stereo not given)
Activity (Mus musculus [17]): 33% | ED50 (Mus musculus [3]): 10.5 mg/kg | Time (Felis catus [15]): 54 min | Activity (Mus musculus [6]): Active | ED50 (Mus musculus [7]): 25 mg/kg | Activity (Canis familiaris [8]): Active | Activity (Mus musculus [9]): 33% | Activity (Canis familiaris [14]): Active | LD50 at 168 h [10]: > 500 mg/kg

CCCCCC(C)C(C)c1cc(O)c2c(c1)OC(C)(C)C1=C2C(C)CC1 (stereo not given)
ED50 (Mus musculus [3]): 13.3 mg/kg | Time (Felis catus [15]): 58 min | Activity (Mus musculus [4]): 66% | Activity (Mus musculus [6]): Active | Activity (Canis familiaris [8]): Active | Activity (Mus musculus [9]): 66% | Activity (Canis familiaris [14]): Active | LD50 at 168 h [10]: > 500 mg/kg

CCCCCC(C)C(C)c1cc(O)c2c(c1)OC(C)(C)C1=C2CC(C)(C)C1 (stereo not given)
ED50 (Mus musculus [3]): > 40 mg/kg | Activity (Mus musculus [4]): inactive | Activity (Mus musculus [6]): Active | Activity (Mus musculus [9]): 33% | Activity (Canis familiaris [14]): Active | ED50 (Rattus norvegicus): > 40 mg/kg | LD50 at 168 h [10]: > 500 mg/kg

CCCCCC(C)C(C)c1cc(O)c2c(c1)OC(C)(C)C1=C2CC(C)(C)S1 (stereo not given)
ED50 (Mus musculus [3]): > 40 mg/kg | Activity (Mus musculus [4]): 1% | Activity (Mus musculus [6]): Active | Activity (Mus musculus [9]): 1% | Activity (Canis familiaris [14]): Active | LD50 at 168 h [10]: > 500 mg/kg

CCCCCC(C)C(C)c1cc(O)c2c(c1)OC(C)(C)C1=C2CC(C)CC1 (stereo not given)
ED50 (Mus musculus [3]): 19.6 mg/kg | Time (Felis catus [15]): 62 min | Activity (Mus musculus [4]): 66% | Activity (Mus musculus [6]): Active | ED50 (Mus musculus [7]): 12.4 mg/kg | Activity (Canis familiaris [8]): Active | Activity (Mus musculus [9]): 66% | Activity (Canis familiaris [14]): Active | LD50 at 168 h [10]: > 500 mg/kg

CCCCCC(C)C(C)c1cc(O)c2c(c1)OC(C)(C)C1=C2CC(C)S1 (stereo not given)
ED50 (Mus musculus [3]): 34 mg/kg | Activity (Mus musculus [4]): 1% | Activity (Mus musculus [6]): Active | Activity (Mus musculus [9]): 33% | Activity (Canis familiaris [14]): Active | LD50 at 168 h [10]: > 500 mg/kg
